Literature values as cited in patent publication US20180256731A1, “NOVEL INSULIN ANALOG AND USE THEREOF” (HANMI PHARM. CO., LTD, priority 2013, published 2018).

Conditions: commercially available long-acting insulin

Substance: insulin glargine
- lasting for (duration): 20 to 22 h

Substance: insulin detemir
- lasting for (duration): 18 to 22 h
